From patent US8323971B2, “Differentiation of pluripotent cells into primary germ layer progenitors” (Cambridge Enterprise Limited, priority 2006, dated 2012)

Legend:
Format in all cases: cell-based, human
H9 hESCs = assay: Screening of culture conditions by immunostaining for Oct4, Sox2, Brachyury, Sox17; settings: for rescue of Oct4 expression under SB431542: added with SB431542
Protocol: Table 2 and Table 3 show the screening of culture conditions for inducing mesoendoderm differentiation into CDM. H9 hESCs were grown for 7 days or more in CDM-BSA or CDM-PVA supplemented with different growth factors (Activin, BMP4, FGF2) or inhibitors (SU5402 for FGF, SB431542 for Activin/Nodal/TGFβ, BIO for βCatenin). Then, immunostaining analysis were used to determine the fractions of cells expressing the pluripotent marker Oct-4, neuroectoderm marker Sox2, the mesoderm marker Brachyury, and the endoderm marker Sox17. The quantities of expressing cells were divided into five arbitrary categories. 0 for absence of expression, VL for expressing cells <1%, L for expressing cells <5%, H for expressing cells >10%, VH for expressing cells >50%. IN red are indicated the conditions allowing the generation of mesendoderm cells expressing Brachyury or Sox17.
HESCs or differentiated progenitors were fixed for 20 minutes at 4° C. in 4% paraformaldehyde (PFA) and then washed three times in PBS. Cells were incubated for 20 minutes at room temperature in PBS containing 10% goat serum (Serotec) and subsequently incubated over night at 4° C. with primary antibody diluted in 1% goat serum in PBS as follows: SSEA-3 (1:100, Santa Cruz), SSAE-1 (1:25), Tra-1-60 (1:100, Santa CruZ), Oct-4 (1:100, Abcam ab18976 or SantaCruz), Sox2 (1:100, Abcam ab15830), Alkaline Phophatase (1:50, Abcam ab17989), Brachyury (1:100, Abcam ab20680 or RandD systems), Sox17 (RandD systems), FoxA2 (1:50, Abcam ab5074), GATA4 (1:250, Santa CruZ), GATA6 (1:200, Abcam ab22600 or Santa Cruz), Vent-2 (1:100, Abcam ab20913), Goosecoid (1:25, Abcam ab21059), Wnt3A (1:100, Abcam ab19925), CXCR4 (1:100, RanD Systems or Pharmingen). Nestin (1:200, Abcam ab5968), NCAM (1:100, Abcam ab8077), GFAP (ZZ), Neurofilament (ZZ), βIII Tubulin (ZZ), Glutamate (ZZ), N-Cadherin (1:100, Abcam ab18203 or ZZ). Cells were then washed three times in PBS and incubated with fluorescein-Isothiocyanate-conjugated anti-mouse IgG or IgM (Sigma 1:200 in 1% goat serum in PBS) or rat IgM (Jackson laboratory 1:300 in goat serum in PBS) or rabbit IgG (Jackson laboratory 1:200 in donkey serum in PBS) for two hours at room temperature. Unbound secondary antibody was removed by 3 washes in PBS. Hoechst 33258 was added to the first wash (Sigma 1:10000).
We then developed a method for inducing differentiation of hESCs into the three primary germ layers. Culture conditions inductive for mesoderm, endoderm and neuroectoderm were screened using an approach based on immunostaining analyses for the expression of proteins specifically expressed by pluripotent cells (Oct-4), neuroectoderm progenitors (Sox2 in absence of Oct4), endoderm progenitors (Sox17) and mesoderm progenitors (Brachyury). In summary, hESCs grown in CDM (CDM-BSA or hu-CDM) were plated on fibronectin in CDM-BSA/AF or CDM-PVA/AF. Then cocktails of growth factors (BMP4, FGF2, Activin) or chemical inhibitors (SU5402, SB431542) were added at different times and for different periods. After 7 to 10 days treatment, cells were fixed and then the expression of Oct-4/Sox2, Sox17 and Brachyury was analysed using immunostaining. The effect of three growth factors on the differentiation of hESCs into the primary germ layers was systematically analysed in our screen. We also studied the function of FGF and Activin signalling pathways in the maintenance of the pluripotent state by analysing the effect of the SU5402, a chemical inhibitor of FGF receptors, and the SB431542, a chemical inhibitor of Activin/TGFβ receptors.

hESCs [1] = assay: Quantitation of β-tubulin III positive cells in monolayer differentiation; settings: Lefty expressing hESCs, feeder free monolayer, CDM; FGF 12 ng/ml, Noggin 200 ng/ml, SU5402 20 μM
Protocol: In some experiments, Wildtype and Lefty expressing hESCs were grown on fibronectin in FGF (12 ng/ml)/Activin (20 ng/ml) as a monolayer in the absence of a feeder layer (Vallier et al., 2005). When cells were 70-80% confluent medium was changed to either CDM only, CDM/FGF (12 ng/ml), CDM/Noggin 200 ng/ml, CDM/SU5402 and differentiated for 24 days.
To quantify the neurogenic potential of Lefty expressing hESCs, we cultured Lefty expressing hESCs in feeder-free conditions as a monolayer in CDM supplemented with Activin and FGF as described previously (Vallier et al., 2005). When cells reached 70-80% confluency, medium was changed to CDM only, CDM plus FGF (12 ng/ml) (CDM/FGF), CDM plus the BMP inhibitor Noggin (200 ng/ml) ([…]) (CDM/SU5402), and cells were cultured in these conditions for 24 days
The incidence of neural differentiation was determined by counting the number of β-tubulin III positive cells in random fields.

hESC derived EBs = assay: Real time qPCR / RT-PCR of neuroectoderm and pluripotency markers in EBs
Protocol: Four independent batches of WT and Lefty EBs were used for this analysis.
Five independent batches of DMSO- and SB431542-treated EBs were used for this analysis.
Lefty or Cerb-S expressing hESCs (as well as wildtype H9 and hSF-6 hESCs) were grown in 6 cm dishes (Corning), on mouse feeders. When confluent, hESCs were passaged using collagenase 1 mg/ml, as previously described (Schatten et al., 2005) and cultured in non-adherent conditions in CDM supplemented with either SU5402 (Calbiochem; 10 μM), SB431542 (Tocris; 20 μM), FGF-2 (R&D Systems; 12 ng/ml) or Noggin 200 ng/ml.
For some RT-PCR experiments, 50-100 ng of RNA were used for each RT-PCR reaction, using the OneStep RT-PCR kit according to manufacturer instructions. For real-time PCR, 1 μg RNA was reverse-transcribed using the Qiagen QuantiTect Reverse Transcription kit. 1/20-1/40 of each cDNA reaction was used for each real-time PCR reaction using the QuantiTect SYBR Green PCR Kit (Qiagen) according to manufacturer instructions. Relative quantification of gene expression was done by normalising the detected levels of gene of interest mRNA to those of the house-keeping GAPDH gene. All primers were purchased from Qiagen, with the exception of Xenopus Cerb-S: Forward 5′-[…]-3′ (SEQ ID NO: 1); Reverse 5′-ATGGTGCAGGGTAG TAGATG-3′ (SEQ ID NO: 2). Mouse Lefty2: Forward 5^r-[…]-3′ (SEQ ID NO: 3); Reverse 5′-[…]-3′ (SEQ ID NO: 4).

hESCs [2] = assay: FACs fraction of cells expressing CXCR4 or PDGFR after mesendoderm induction in CDM PVA; settings: Activin 100 ng/ml at third step with BMP4 and FGF2, CDM-PVA
Protocol: Fraction of cells expressing CXCR4 or PDGFa was determined using FACs after the third day in CDM+BMP+FGF+Activin.
hESCs grown in Feeder free and serum free conditions were harvested using 5 mg/ml collagenase IV then plated into plates pre-coated with fibronectin. hESCs were grown for 48 hours in CDM supplemented with Activin (10 ng/ml, RandD systems) and FGF2 (12 ng/ml, RandD systems). To induce extra-embryonic differentiation, hESCs were grown for 5 additional days in CDM supplemented with BMP4 (10 ng/ml, RandD systems). To obtain neuroectoderm progenitors, hESCs were grown in CDM or in CDM-PVA in the presence of SB431542 (10 μM Tocris) and FGF2 (12 ng/ml, RandD systems) for 7 additional days. The resulting cells were grown in non-adherent conditions for 10 days and then plated back for 5 additional days in CDM to obtain fully differentiated neuronal cells. To obtain mesendoderm precursors, hESCs were grown for 3 additional days in CDM-PVA in the presence of SU5402 (10 μM, Calbiochem) and Activin (5 ng/ml, RandD systems). […]
For detection of Tra-1-60, SSEA-3, N-CAM, CXCR4 and PDGFαRecptor adherent cells were washed twice in PBS then incubated for 20 minutes at 37 C in cell dissociation buffer (Invitrogen). […] Live cells identified by 7-AAD exclusion were analyzed for surface-marker expression using FACSCalibur.

FGF2: human fibroblast growth factor 2
rescue of Oct4 expression under SB431542 (H9 hESCs): not sufficient to rescue the expression of Oct4 | number of β-tubulin III positive cells compared to controls (hESCs [1]): did not show a significant increase

O=C1Nc2cc(Br)ccc2/C1=C1/Nc2ccccc2/C1=N\O [BIO, reference compound]
rescue of Oct4 expression under SB431542 (H9 hESCs): not sufficient to rescue the expression of Oct4

NC(=O)c1ccc(-c2nc(-c3ccc4c(c3)OCO4)c(-c3ccccn3)[nH]2)cc1 [SB431542, 4-(5-Benzol[1,3]dioxol-5-yl-4-pyrldin-2-yl-1H-imidazol-2-yl)-benzamide hydrate]
cells expressing the mesendoderm markers Bra, Sox17, FoxA2, and αFP (H9 hESCs; in the presence of SB431542): never observed | Nestin, Sox3, and NGN2 expression (real time qPCR) (hESC derived EBs; 20 μM, EBs cultured 14-16 days, vs DMSO): average increase | pluripotency marker Oct4 (RT-PCR time course) (hESC derived EBs; EBs harvested every 4 days over 16 days, compared to controls): rapid down-regulation | Sox1 expression levels (real time qPCR) (hESC derived EBs; EBs in CDM 14-16 days, vs DMSO): not a significant increase

Cc1c[nH]c(C=C2C(=O)Nc3ccccc32)c1CCC(=O)O [SU5402, 3-[3-(2-Carboxyethyl)-4-methylpyrrol-2-methylidenyl]-2-indolinone, reference compound]
number of β-tubulin III positive cells compared to controls (hESCs [1]): significant reduction

B1: Noggin: the BMP inhibitor Noggin (protein, UniProt Q13253 28-232, looked up)
Noggin: QHYLHIRPAPSDNLPLVDLIEHPDPIFDPKEKDLNETLLRSLLGGHYDPGFMATSPPEDRPGGGGGAAGGAEDLAELDQLLRQRPSGAMPSEIKGLEFSEGLAQGKKQRLSKKLRRKLQMWLWSQTFCPVLYAWNDLGSRFWPRYVKVGSCFSKRSCSVPEGMVCKPSKSVHLTVLRWRCQRRGGQRCGWIPIQYPIISECKCSC
number of β-tubulin III positive cells compared to controls (hESCs [1]): significant increase

B2: Activin: dimeric polypeptide stimulating the Activin/Nodal pathway (protein, UniProt P08476 311-426, looked up)
Inhibin beta A chain: GLECDGKVNICCKKQFFVSFKDIGWNDWIIAPSGYHANYCEGECPSHIAGTSGSSLSFHSTVINHYRMRGHSPFANLKSCCVPTKLRPMSMLYYDDGQNIIKKDIQNMIVEECGCS
modifications: Inhibin beta A chain
expression of neuroectoderm markers Sox1, Sox3, Nestin and NGN2 (hESC derived EBs; addition to EB cultures): decreasing expression | fraction of cells expressing CXCR4 (hESCs [2]): 70% | fraction of cells expressing PDGFR (hESCs [2]): 7%
